{
  "source": "patent US10286063B2",
  "about": "(priority 2015, dated 2019)",
  "key": {"[1]": {"system": "PBMC", "type": "cell-based, human"}, "[2]": {"system": "Normal subject PBMC", "type": "cell-based, human"}},
  "note": "“Also recorded” adds a separate entry of the source.",
  "data": [
    {"sequence": "RIDFHWLMLNPNDTVTFS [Peptide H7N9-1]", "values": [
      {"measurement": "% Inhibition by HLA-DR blocking Ab", "setting": "[1]", "result": 46, "unit": "%"},
      {"measurement": "Effect of blocking HLA-DR on peptide-induced T cell response (in words)", "setting": "[1]", "result": "only partially inhibited"}
    ]},
    {"sequence": "PKYVKSTKLRLATG [IAV-1, reference compound]", "values": [
      {"measurement": "% Inhibition by HLA-DR blocking Ab", "setting": "[1]", "result": 100, "unit": "%"}
    ]},
    {"sequence": "KGILGFVFTLTVPSERGLQ [Peptide H7N9-3]", "values": [
      {"measurement": "% Inhibition by HLA-DR blocking Ab", "setting": "[1]", "result": 97, "unit": "%"},
      {"measurement": "Effect of blocking HLA-DR on peptide-induced T cell response (in words)", "setting": "[1]", "result": "only partially inhibited"}
    ]},
    {"sequence": "DKLYERVKRQLRENAEED [Peptide H7N9-8]", "values": [
      {"measurement": "% Inhibition by HLA-DR blocking Ab", "setting": "[1]", "result": 89, "unit": "%"},
      {"measurement": "Effect of blocking HLA-DR on peptide-induced T cell response (in words)", "setting": "[1]", "result": "only partially inhibited"}
    ]},
    {"sequence": "PRYVKQNTLKLATG [IAV-3, reference compound]", "values": [
      {"measurement": "% Inhibition by HLA-DR blocking Ab", "setting": "[1]", "result": 78, "unit": "%"},
      {"measurement": "Effect of blocking HLA-DR on peptide-induced T cell response (in words)", "setting": "[1]", "result": "only partially inhibited"}
    ]},
    {"sequence": "PRYVKQSTLKLATG [IAV-2, reference compound]", "values": [
      {"measurement": "% Inhibition by HLA-DR blocking Ab", "setting": "[1]", "result": 73, "unit": "%"},
      {"measurement": "Effect of blocking HLA-DR on peptide-induced T cell response (in words)", "setting": "[1]", "result": "only partially inhibited"}
    ]},
    {"sequence": "PRYVKQRSLLLATG [Peptide H7N9-13]", "values": [
      {"measurement": "suppression of T cell response to pool of H7N9 ICS peptides on co-incubation", "setting": "[2]", "result": "significantly suppressed T cell response to the pooled peptides; also recorded: significantly decreased"},
      {"measurement": "suppression of T cell responses to HA peptides from circulating IAV strains", "setting": "[2]", "result": "significantly suppressed T cell response to IAV-3; also recorded: Reduced responses to the pool of IAV peptides (1-4); also recorded: able to suppress responses to other immunodominant HA peptides from circulating IAV strains"},
      {"measurement": "% Inhibition by HLA-DR blocking Ab", "setting": "[1]", "result": 100, "unit": "%"}
    ]},
    {"sequence": "QITFMQALQLLLEVE [Peptide H7N9-12]", "values": [
      {"measurement": "% Inhibition by HLA-DR blocking Ab", "setting": "[1]", "result": 100, "unit": "%"}
    ]},
    {"sequence": "SRKLLLIVQALRDNLEPG [Peptide H7N9-11]", "values": [
      {"measurement": "% Inhibition by HLA-DR blocking Ab", "setting": "[1]", "result": "increased response"},
      {"measurement": "Effect of blocking HLA-DR on peptide-induced T cell response (in words)", "setting": "[1]", "result": "the response increased in the presence of the blocking antibody; also recorded: response was absent except when HLA-DR was blocked"}
    ]},
    {"sequence": "WKQWLSLKNTLTQGSL [Peptide H7N9-14B]", "values": [
      {"measurement": "suppression of T cell responses to HA peptides from circulating IAV strains", "setting": "[2]", "result": "Reduced responses to the pool of IAV peptides (1-4)"}
    ]},
    {"sequence": "AANIIGILHLILWILDRL [Peptide H7N9-10]", "values": [
      {"measurement": "% Inhibition by HLA-DR blocking Ab", "setting": "[1]", "result": 68, "unit": "%"},
      {"measurement": "Effect of blocking HLA-DR on peptide-induced T cell response (in words)", "setting": "[1]", "result": "only partially inhibited"}
    ]},
    {"sequence": "YAEMKWLLSNTDNAAFPQ [Peptide H7N9-2]", "values": [
      {"measurement": "% Inhibition by HLA-DR blocking Ab", "setting": "[1]", "result": 100, "unit": "%"}
    ]},
    {"sequence": "PKYVKSNRLVLATG [IAV-4, reference compound]", "values": [
      {"measurement": "% Inhibition by HLA-DR blocking Ab", "setting": "[1]", "result": 96, "unit": "%"},
      {"measurement": "Effect of blocking HLA-DR on peptide-induced T cell response (in words)", "setting": "[1]", "result": "only partially inhibited"}
    ]},
    {"sequence": "IVYWKQWLSLKNLTQ [Peptide H7N9-14A]", "values": [
      {"measurement": "suppression of T cell responses to HA peptides from circulating IAV strains", "setting": "[2]", "result": "Reduced responses to the pool of IAV peptides (1-4)"},
      {"measurement": "% Inhibition by HLA-DR blocking Ab", "setting": "[1]", "result": 100, "unit": "%"}
    ]},
    {"sequence": "AVKLYKKLKREMTFHGA [Peptide H7N9-9]", "values": [
      {"measurement": "suppression of T cell response to pool of H7N9 ICS peptides on co-incubation", "setting": "[2]", "result": "did not suppress T cell responses to the pool of H7N9 epitopes"},
      {"measurement": "% Inhibition by HLA-DR blocking Ab", "setting": "[1]", "result": 100, "unit": "%"}
    ]},
    {"sequence": "QPEWFRNVLSIAPIMFSNK [Peptide H7N9-4]", "values": [
      {"measurement": "% Inhibition by HLA-DR blocking Ab", "setting": "[1]", "result": 100, "unit": "%"}
    ]}
  ]
}
